{"source": "patent US20130296430A1", "about": "“COMPOSITIONS AND METHODS FOR TREATING AUTISM AND AUTISM SPECTRUM DISORDER” (priority 2012, published 2013)", "tested_on": "children with autism", "assay": "12-week placebo-controlled study of NAC: safety evaluation, adverse events (DOTES)", "assay_type": "in vivo, human", "text": "Primary behavioral outcome measures, include, for example, but are not limited to, (a) the Aberrant Behavior Checklist (ABC) irritability subscale; and (b) Dosage Record and Treatment Emergent Symptom Scale (DOTES), which provides information on the presence, frequency and severity of side effects (Guy, W., ECDEU Assessment Manual for Psychopharmacology, Rockville, Md., U.S. Department of Health, Education, and Welfare (1976)). Secondary behavioral outcome measures include, but are not limited to, (a) the Clinical Global Impression (CGI); (b) ABC-Stereotypy subscale; (c) Repetitive Behavior Scale (RBS); and (d) Social responsiveness scale (SRS).\nAfter the screening phase, baseline measures were obtained from subjects continuing to meet inclusion and exclusion criteria. Subjects were then randomized to either placebo or active based on age and gender. As NAC is a nutritional supplement, the quality control is predictably variable and therefore purity is not as stringent as prescription medications. Therefore, in the present study, the stability of the compound was ascertained and the integrity of the active agent was protected by packaging each NAC doses in individual pockets. The active compound and matching placebo were provided by BioAdvantex Pharma, Inc. (Mississauga, Ontario, Canada). […] Subjects randomized to the active drug were initiated at the dose of 900 mg every day for the first 4 weeks, then 900 mg twice daily for 4 weeks and 900 mg three times daily for 4 weeks. (This dose selection was based on previously published studies for other psychiatric conditions (Grant, J. et al., Arch Gen Psychiatry, 66:468-475 (2009); Berk, M. et al., Biol Psychiatry, 64:361-368 (2008); Berk, M. et al., Bio Psychiatry, 64:468-475 (2008)) and the previous experience of our group in studies of children with cystic fibrosis). Alternatively, subjects were initiated at the dose of 900 mg per day, 1,800 mg per day, or 2,700 mg per day of NAC. Alternatively, the subjects were initiated at the dose ranging from 900 mg per day to 2,700 mg per day of NAC.\nIf a subject could not tolerate a specific dose, s/he would be maintained at the highest tolerated dose. Subjects were evaluated at baseline, week 4, week 8 and week 12. The Aberrant Behavioral Checklist (ABC) (Aman, M. et al., Am J Ment Defic. 89:492-502 (1985)), the Clinical Global Impressions (CGI) (Guy, W., ECDEU Assessment Manual for Psychopharmacology, Rockville, Md., U.S. Department of Health, Education, and Welfare (1976)), and the Dosage Record and Treatment Emergent Symptom Scale (DOTES) (Guy, W., 1976, ECDEU Assessment Manual for Psychopharmacology, Rockville, Md., U.S. Department of Health, Education, and Welfare) were obtained in each visit. Additional secondary measures were obtained at baseline and at week 12 and included the social responsiveness scale (SRS) (Constantino, J. et al., J. Dev Behav Pediatr., 21:2-11 (2000); Constantino, J. et al., J Autism Dev Disord., 33:427-433 (2003)), and the repetitive behavior scale-revised (RBS-R) (Bodfish, J. et al., The Repetitive Behavior Scale: A test manual (1998)).\nThe following adverse events (AEs) were more frequently reported in the NAC group than the placebo group, but differences were not statistically different (all p>0.100): depressed affect (1 vs. 0), akathisia (1 vs. 0), constipation (3 vs. 2), nausea/vomiting (6 vs. 3), increased appetite (2 vs. 0), diarrhea (3 vs. 1). The following AEs were reported more in the placebo group than the NAC group: excitement/agitation (3 vs. 2), increased motor activity (3 vs. 2), nasal congestion (6 vs. 4), decreased appetite (3 vs. 2), tremor (1 vs. 0), sweating (1 vs. 0), syncope/dizziness (1 vs. 0), increased salivation (2 vs. 0). One subject in each group reported insomnia and stomachache.", "key": {"[1]": {"settings": "NAC group, same in placebo group"}}, "data": [{"compound": "CC(=O)N[C@@H](CS)C(=O)O", "note": "[NAC, N-acetylcysteine]", "values": [{"measurement": "side effects observed, overall", "setting": "12-week study, up to 900 mg three times daily", "value": "Minimal side effects"}, {"measurement": "adverse event reported: akathisia (count)", "setting": "NAC group, placebo 0, p>0.100", "value": 1}, {"measurement": "adverse event reported: depressed affect (count)", "setting": "NAC group, placebo 0, p>0.100", "value": 1}, {"measurement": "adverse event reported: increased appetite (count)", "setting": "NAC group, placebo 0, p>0.100", "value": 2}, {"measurement": "adverse event reported: sweating (count)", "setting": "NAC group, placebo 1", "value": 0}, {"measurement": "adverse event reported: syncope/dizziness (count)", "setting": "NAC group, placebo 1", "value": 0}, {"measurement": "adverse event reported: tremor (count)", "setting": "NAC group, placebo 1", "value": 0}, {"measurement": "adverse event reported: diarrhea (count)", "setting": "NAC group, placebo 1, p>0.100", "value": 3}, {"measurement": "adverse event reported: increased salivation (count)", "setting": "NAC group, placebo 2", "value": 0}, {"measurement": "adverse event reported: constipation (count)", "setting": "NAC group, placebo 2, p>0.100", "value": 3}, {"measurement": "adverse event reported: decreased appetite (count)", "setting": "NAC group, placebo 3", "value": 2}, {"measurement": "adverse event reported: excitement/agitation (count)", "setting": "NAC group, placebo 3", "value": 2}, {"measurement": "adverse event reported: increased motor activity (count)", "setting": "NAC group, placebo 3", "value": 2}, {"measurement": "adverse event reported: nausea/vomiting (count)", "setting": "NAC group, placebo 3, p>0.100", "value": 6}, {"measurement": "adverse event reported: nasal congestion (count)", "setting": "NAC group, placebo 6", "value": 4}, {"measurement": "adverse event reported: insomnia (subjects)", "setting": "[1]", "value": "One"}, {"measurement": "adverse event reported: stomachache (subjects)", "setting": "[1]", "value": "One"}, {"measurement": "subjects with worsening of baseline agitation and irritability requiring early termination", "setting": "active group, later medical evaluation revealed severe constipation", "value": "one"}]}]}
